In paper PMC12203862, “BroadAMP-GPT: AI-Driven generation of broad-spectrum antimicrobial peptides for combating multidrug-resistant ESKAPE pathogens” (Gut Microbes, 2025):
In brackets after ≈: the same amount, converted by molar mass. Like-named read-outs stand apart in the source and are kept apart here.

Columns and labels:
S. aureus ATCC 29213 = experiment: microbe, parasite or virus in culture; assay type: cell-based; settings: Staphylococcus aureus, ATCC29213
A. baumannii 7979 = experiment: microbe, parasite or virus in culture; assay type: cell-based; settings: Acinetobacter baumannii; Table 1; A. baumannii 7979; broth microdilution; read-out: MIC
Protocol: (§1) Bacterial strains and growth conditions: All Gram-negative and Gram-positive bacterial strains (Supplementary Table S8) were cultured in Luria-Bertani (LB) or trypticase soy broth (TSB) agar plates, respectively, and incubated overnight at 37 °C unless specifically indicated. A single colony of the tested bacterial strains was inoculated into medium broth with shaking at 220 rpm for further experiments.
(§2) Minimal inhibitory concentrations: Antimicrobial susceptibility testing was performed by broth microdilution method for AMPs against Gram-positive and Gram-negative pathogens above mentioned, following the methods of document CLSI M100-ED34.[43] The MICs were defined as the lowest concentrations that inhibit visible growth of the tested bacteria. E. coli ATCC 25,922 and S. aureus ATCC 29,213 were served as quality controls.

A. baumannii AB11 = experiment: microbe, parasite or virus in culture; assay type: cell-based; settings: Acinetobacter baumannii; Table 1; A. baumannii AB11; broth microdilution; read-out: MIC
Protocol: as §1, §2

E. coli ATCC 25922 = experiment: microbe, parasite or virus in culture; assay type: cell-based; settings: Escherichia coli, ATCC25922; Table 1; E. coli ATCC 25922; broth microdilution; read-out: MIC
Protocol: as §1, §2

E. faecalis ES01 = experiment: microbe, parasite or virus in culture; assay type: cell-based; settings: Enterococcus faecalis; Table 1; E. faecalis ES01; ermB, vanB; broth microdilution; read-out: MIC
Protocol: as §1, §2

E. faecalis J2 = experiment: microbe, parasite or virus in culture; assay type: cell-based; settings: Enterococcus faecalis; Table 1; E. faecalis J2; ermB, optrA; broth microdilution; read-out: MIC
Protocol: as §1, §2

E. faecalis JH2-2 = experiment: microbe, parasite or virus in culture; assay type: cell-based; settings: Enterococcus faecalis, JH22; Table 1; E. faecalis JH2-2; broth microdilution; read-out: MIC
Protocol: as §1, §2

E. faecalis SF23-1 = experiment: microbe, parasite or virus in culture; assay type: cell-based; settings: Enterococcus faecalis, SF231; Table 1; E. faecalis SF23-1; ermB, tetL, cfr; broth microdilution; read-out: MIC
Protocol: as §1, §2

E. faecium HFY01 = experiment: microbe, parasite or virus in culture; assay type: cell-based; settings: Enterococcus faecium; Table 1; E. faecium HFY01; broth microdilution; read-out: MIC
Protocol: as §1, §2

E. faecium MC38 = experiment: microbe, parasite or virus in culture; assay type: cell-based; settings: Enterococcus faecium; Table 1; E. faecium MC38; ermB, optrA; broth microdilution; read-out: MIC
Protocol: as §1, §2

E. faecium QF31 = experiment: microbe, parasite or virus in culture; assay type: cell-based; settings: Enterococcus faecium; Table 1; E. faecium QF31; ermB, cfr; broth microdilution; read-out: MIC
Protocol: as §1, §2

K. pneumoniae 9-1 = experiment: microbe, parasite or virus in culture; assay type: cell-based; settings: Klebsiella pneumoniae, 91; Table 1; K. pneumoniae 9-1; broth microdilution; read-out: MIC
Protocol: as §1, §2

P. aeruginosa PA14 = experiment: microbe, parasite or virus in culture; assay type: cell-based; settings: Pseudomonas aeruginosa; Table 1; P. aeruginosa PA14; broth microdilution; read-out: MIC
Protocol: as §1, §2

P. aeruginosa PAO1 = experiment: microbe, parasite or virus in culture; assay type: cell-based; settings: Pseudomonas aeruginosa; Table 1; P. aeruginosa PAO1; broth microdilution; read-out: MIC
Protocol: as §1, §2

S. agalactiae DL03 = experiment: microbe, parasite or virus in culture; assay type: cell-based; settings: Streptococcus agalactiae; Table 1; S. agalactiae DL03; ermB; broth microdilution; read-out: MIC
Protocol: as §1, §2

S. aureus M147-2 = experiment: microbe, parasite or virus in culture; assay type: cell-based; settings: Staphylococcus aureus, M1472; Table 1; S. aureus M147-2; ermB, tetL, cfr; broth microdilution; read-out: MIC
Protocol: as §1, §2

S. aureus M92-1 = experiment: microbe, parasite or virus in culture; assay type: cell-based; settings: Staphylococcus aureus, M921; Table 1; S. aureus M92-1; ermB, tetL, optrA; broth microdilution; read-out: MIC
Protocol: as §1, §2

S. aureus YZSA-15 = experiment: microbe, parasite or virus in culture; assay type: cell-based; settings: Staphylococcus aureus, YZSA15; Table 1; S. aureus YZSA-15; ermC, vanB; broth microdilution; read-out: MIC
Protocol: as §1, §2

S. aureus YZSA-21 = experiment: microbe, parasite or virus in culture; assay type: cell-based; settings: Staphylococcus aureus, YZSA21; Table 1; S. aureus YZSA-21; ermC; broth microdilution; read-out: MIC
Protocol: as §1, §2

S. aureus YZSA-24 = experiment: microbe, parasite or virus in culture; assay type: cell-based; settings: Staphylococcus aureus, YZSA24; Table 1; S. aureus YZSA-24; ermC, mecA; broth microdilution; read-out: MIC
Protocol: as §1, §2

S. pyogenes DL02 = experiment: microbe, parasite or virus in culture; assay type: cell-based; settings: Streptococcus pyogenes; Table 1; S. pyogenes DL02; ermB; broth microdilution; read-out: MIC
Protocol: as §1, §2

S. suis SH0918 = experiment: microbe, parasite or virus in culture; assay type: cell-based; settings: Streptococcus suis; Table 1; S. suis SH0918; ermB, tetO, optrA; broth microdilution; read-out: MIC
Protocol: as §1, §2

S. suis P1/7 = experiment: microbe, parasite or virus in culture; settings: Streptococcus suis, P1/7
Protocol: as §1
Minimal inhibitory concentrations: Antimicrobial susceptibility testing was performed by broth microdilution method for AMPs against Gram-positive and Gram-negative pathogens above mentioned, following the methods of document CLSI M100-ED34.[43] The MICs were defined as the lowest concentrations that inhibit visible growth of the tested bacteria.

S. enteritis S1 = experiment: organism not typed; assay type: cell-based; settings: Table 1; S. enteritis S1; broth microdilution; read-out: MIC
Protocol: as §1, §2

[1] = Table 1, S. aureus ATCC 29213, broth microdilution, CLSI M100-ED34, read-out: MIC

Structure (SMILES) | MIC (A. baumannii 7979) [µg/mL] | MIC (A. baumannii AB11) [µg/mL] | MIC (E. coli ATCC 25922) [µg/mL] | MIC (E. faecalis ES01) [µg/mL] | MIC (E. faecalis J2) [µg/mL] | MIC (E. faecalis JH2-2) [µg/mL] | MIC (E. faecalis SF23-1) [µg/mL] | MIC (E. faecium HFY01) [µg/mL] | MIC (E. faecium MC38) [µg/mL] | MIC (E. faecium QF31) [µg/mL] | MIC (K. pneumoniae 9-1) [µg/mL] | MIC (P. aeruginosa PA14) [µg/mL] | MIC (P. aeruginosa PAO1) [µg/mL] | MIC (S. agalactiae DL03) [µg/mL] | MIC (S. aureus M147-2) [µg/mL] | MIC (S. aureus M92-1) [µg/mL] | MIC (S. aureus YZSA-15) [µg/mL] | MIC (S. aureus YZSA-21) [µg/mL] | MIC (S. aureus YZSA-24) [µg/mL] | MIC (S. pyogenes DL02) [µg/mL] | also measured
CCC[C@@H]1C[C@@H](C(=O)N[C@@H]([C@H]2O[C@H](SC)[C@H](O)[C@@H](O)[C@H]2O)[C@H](C)Cl)N(C)C1 [CLI, clindamycin] | > 64 | 0.5 (≈ 1.18 µM) | > 64 | > 64 | > 64 | 0.5 (≈ 1.18 µM) | > 64 | 0.5 (≈ 1.18 µM) | > 64 | > 64 | > 64 | > 64 | > 64 | > 64 | > 64 | > 64 | > 64 | > 64 | > 64 | > 64 | MIC (S. aureus ATCC 29213): 0.125 µg/mL (≈ 0.294 µM); MIC (S. suis SH0918): > 64 µg/mL; MIC (S. suis P1/7): 0.125 µg/mL (≈ 0.294 µM); MIC (S. enteritis S1): > 64 µg/mL
C[C@H]1c2cccc(O)c2C(=O)C2=C(O)[C@]3(O)C(=O)C(C(N)=O)=C(O)[C@@H](N(C)C)[C@@H]3[C@@H](O)[C@@H]21 [DOX, doxycycline] | > 64 | < 0.06 | 1 (≈ 2.25 µM) | 0.5 (≈ 1.13 µM) | 16 (≈ 36 µM) | 4 (≈ 9 µM) | 16 (≈ 36 µM) | < 0.06 | 16 (≈ 36 µM) | 16 (≈ 36 µM) | > 64 | 16 (≈ 36 µM) | 8 (≈ 18 µM) | < 0.06 | 16 (≈ 36 µM) | 16 (≈ 36 µM) | 0.25 (≈ 0.563 µM) | 0.25 (≈ 0.563 µM) | 0.5 (≈ 1.13 µM) | 2 (≈ 4.5 µM) | MIC (S. aureus ATCC 29213; [1]): 0.25 µg/mL (≈ 0.563 µM); MIC (S. suis SH0918): 16 µg/mL (≈ 36 µM); MIC (S. suis P1/7): 0.125 µg/mL (≈ 0.281 µM); MIC (S. enteritis S1): > 64 µg/mL
CO[C@@]1(NC(=O)Cc2cccs2)C(=O)N2C(C(=O)O)=C(COC(N)=O)CS[C@@H]21 [FOX, Cefoxitin] | > 64 | 16 (≈ 37.4 µM) | 0.25 (≈ 0.585 µM) | > 64 | > 64 | > 64 | > 64 | 8 (≈ 18.7 µM) | > 64 | > 64 | > 64 | > 64 | > 64 | 4 (≈ 9.36 µM) | 4 (≈ 9.36 µM) | 4 (≈ 9.36 µM) | 2 (≈ 4.68 µM) | 4 (≈ 9.36 µM) | 32 (≈ 74.9 µM) | 1 (≈ 2.34 µM) | MIC (S. aureus ATCC 29213; [1]): 1 µg/mL (≈ 2.34 µM); MIC (S. suis SH0918): 8 µg/mL (≈ 18.7 µM); MIC (S. suis P1/7): 1 µg/mL (≈ 2.34 µM); MIC (S. enteritis S1): 32 µg/mL (≈ 74.9 µM)
CNC(C)C1CCC(N)C(OC2C(N)CC(N)C(OC3OCC(C)(O)C(NC)C3O)C2O)O1 (stereo not drawn) [GEN, gentamicin] | > 64 | < 0.06 | 4 (≈ 8.38 µM) | > 64 | > 64 | 4 (≈ 8.38 µM) | 8 (≈ 16.8 µM) | < 0.06 | > 64 | > 64 | > 64 | < 0.06 | 0.125 (≈ 0.262 µM) | 16 (≈ 33.5 µM) | > 64 | > 64 | 0.5 (≈ 1.05 µM) | 0.5 (≈ 1.05 µM) | 1 (≈ 2.09 µM) | 1 (≈ 2.09 µM) | MIC (S. aureus ATCC 29213; [1]): 1 µg/mL (≈ 2.09 µM); MIC (S. suis SH0918): 16 µg/mL (≈ 33.5 µM); MIC (S. suis P1/7): 4 µg/mL (≈ 8.38 µM); MIC (S. enteritis S1): 0.25 µg/mL (≈ 0.523 µM)
